Test results as given in patent US8658791B2, “2-substituted-6-amino-5-alkyl, alkenyl or alkynyl-4-pyrimidinecarboxylic acids and 6-substituted-4-amino-3-alkyl, alkenyl or alkynyl picolinic acids and their use as herbicides” (Dow AgroSciences, LLC, priority 2007, dated 2014).
Where a name gives a salt, the structure may show the parent alone.

Experiments:
rice (Oryza sativa) = experiment: General postemergence herbicidal activity, ORYSA; format: in vivo; conditions: postemergence spray, visual score after 14 days, 0 = no injury, 100 = complete kill; for plant injury at 280 g/ha / plant injury at 70 g/ha / plant injury at 140 g/ha: Oryza sativa, post-emergence, 336 h, read-out: Post-emergent Weed Control ORYSA; for plant injury at 280 g/ha: 280 g ai/ha; for plant injury at 140 g/ha: 140 g ai/ha
Experimental: (§1) Seeds or nutlets of the desired test plant species were planted in Sun Gro MetroMix® 306 planting mixture, which typically has a pH of 6.0 to 6.8 and an organic matter content of about 30 percent, in plastic pots with a surface area of 103 square centimeters. When required to ensure good germination and healthy plants, a fungicide treatment and/or other chemical or physical treatment was applied. The plants were grown for 7-21 days in a greenhouse with an approximate 15 hour photoperiod which was maintained at about 23-29° C. during the day and 22-28° C. during the night. Nutrients and water were added on a regular basis and supplemental lighting was provided with overhead metal halide 1000-Watt lamps as necessary. The plants were employed for testing when they reached the first or second true leaf stage.
(§2) A weighed amount, determined by the highest rate to be tested, of each test compound was placed in a 25 mL glass vial and was dissolved in 4 mL of a 97:3 v/v (volume/volume) mixture of acetone and dimethyl sulfoxide (DMSO) to obtain concentrated stock solutions. […] The concentrated stock solutions obtained were diluted with 20 mL of an aqueous mixture containing acetone, water, isopropyl alcohol, DMSO, Atplus 411F crop oil concentrate, and Triton® X-155 surfactant in a 48.5:39:10:1.5:1.0:0.02 v/v ratio to obtain spray solutions containing the highest application rates. Additional application rates were obtained by serial dilution of 12 mL of the high rate solution into a solution containing 2 mL of 97:3 v/v (volume/volume) mixture of acetone and dimethyl sulfoxide (DMSO) and 10 mL of an aqueous mixture containing acetone, water, isopropyl alcohol, DMSO, Atplus 411F crop oil concentrate, and Triton X-155 surfactant in a 48.5:39:10:1.5:1.0:0.02 v/v ratio to obtain 1/2X, 1/4X, 1/8X and 1/16X rates of the high rate. Compound requirements are based upon a 12 mL application volume at a rate of 187 L/ha. Formulated compounds were applied to the plant material with an overhead Mandel track sprayer equipped with a 8002E nozzles calibrated to deliver 187 L/ha over an application area of 0.503 square meters at a spray height of 18 inches (43 cm) above the average plant canopy height. Control plants were sprayed in the same manner with the solvent blank.
(§3) The treated plants and control plants were placed in a greenhouse as described above and watered by sub-irrigation to prevent wash-off of the test compounds. After 14 days, the condition of the test plants as compared with that of the untreated plants was determined visually and scored on a scale of 0 to 100 percent where 0 corresponds to no injury and 100 corresponds to complete kill.

[1] = tested on: wild poinsettia (Euphorbia heterophylla); experiment: General postemergence herbicidal activity, EPHHL; format: in vivo; conditions: postemergence spray, visual score after 14 days, 0 = no injury, 100 = complete kill; for pest or weed control at 280 g/ha / pest or weed control at 70 g/ha / pest or weed control at 140 g/ha: Euphorbia heterophylla, post-emergence, 336 h, read-out: Post-emergent Weed Control EPHHL; for pest or weed control at 280 g/ha: 280 g ai/ha; for pest or weed control at 140 g/ha: 140 g ai/ha
Experimental: as §1, §2, §3

[2] = tested on: velvetleaf (Abutilon theophrasti); experiment: General postemergence herbicidal activity, ABUTH; format: in vivo; conditions: postemergence spray, visual score after 14 days, 0 = no injury, 100 = complete kill; for pest or weed control at 280 g/ha / pest or weed control at 70 g/ha / pest or weed control at 140 g/ha: Abutilon theophrasti, post-emergence, 336 h, read-out: Post-emergent Weed Control ABUTH; for pest or weed control at 280 g/ha: 280 g ai/ha; for pest or weed control at 140 g/ha: 140 g ai/ha
Experimental: as §1, §2, §3

[3] = tested on: barnyardgrass (Echinochloa crus-galli); experiment: General postemergence herbicidal activity, ECHCG; format: in vivo; conditions: postemergence spray, visual score after 14 days, 0 = no injury, 100 = complete kill; for pest or weed control at 280 g/ha / pest or weed control at 70 g/ha / pest or weed control at 140 g/ha: Echinochloa crus-galli, post-emergence, 336 h, read-out: Post-emergent Weed Control ECHCG; for pest or weed control at 280 g/ha: 280 g ai/ha; for pest or weed control at 140 g/ha: 140 g ai/ha
Experimental: as §1, §2, §3

[4] = tested on: lambsquarter (Chenopodium album); experiment: General postemergence herbicidal activity, CHEAL; format: in vivo; conditions: postemergence spray, visual score after 14 days, 0 = no injury, 100 = complete kill; for pest or weed control at 280 g/ha / pest or weed control at 70 g/ha / pest or weed control at 140 g/ha: Chenopodium album, post-emergence, 336 h, read-out: Post-emergent Weed Control CHEAL; for pest or weed control at 280 g/ha: 280 g ai/ha; for pest or weed control at 140 g/ha: 140 g ai/ha
Experimental: as §1, §2, §3

Structure (SMILES) | melting point [°C] | plant injury at 280 g/ha (rice (Oryza sativa)) [%] | pest or weed control at 280 g/ha [1] [%] | pest or weed control at 280 g/ha [2] [%] | pest or weed control at 280 g/ha [3] [%] | pest or weed control at 280 g/ha [4] [%] | other results
C=Cc1c(N)nc(-c2ccc(Cl)c(OC)c2)nc1C(=O)OC [Compound 7, 6-Amino-2-(4-chloro-3-methoxyphenyl)-5-vinylpyrimidine-4-carboxylic acid methyl ester] | 144 to 148 | 0 | 70 | 60 | 0 | 95 | –
C/C=C\c1c(N)nc(-c2ccc(Cl)c(OC)c2F)nc1C(=O)OC [Compound 23, 6-Amino-2-(4-chloro-2-fluoro-3-methoxyphenyl)-5-((Z)-propenyl)pyrimidine-4-carboxylic acid methyl ester] | 91 to 93 | – | – | – | – | – | plant injury at 70 g/ha (rice (Oryza sativa); 70 g ai/ha): 10%; pest or weed control at 70 g/ha ([1]; 70 g ai/ha): 100%; pest or weed control at 70 g/ha ([2]; 70 g ai/ha): 85%; pest or weed control at 70 g/ha ([3]; 70 g ai/ha): 95%; pest or weed control at 70 g/ha ([4]; 70 g ai/ha): 95%
C=Cc1c(N)nc(-c2ccc(Cl)cc2)nc1C(=O)OC [Compound 6, 6-Amino-2-(4-chlorophenyl)-5-vinylpyrimidine-4-carboxylic acid methyl ester] | 164 to 167 | 0 | 70 | 100 | 80 | 90 | –
C=Cc1c(N)nc(C2CC2)nc1C(=O)O [Compound 57, 6-amino-2-cyclopropyl-5-vinylpyrimidine-4-carboxylic acid] | 187 to 189 | – | – | – | – | – | plant injury at 140 g/ha (rice (Oryza sativa)): 5%; pest or weed control at 140 g/ha [1]: 100%; pest or weed control at 140 g/ha [2]: 90%; pest or weed control at 140 g/ha [3]: 30%; pest or weed control at 140 g/ha [4]: 100%
COc1c(Cl)ccc(-c2nc(N)c(C(C)OC)c(C(=O)O)n2)c1F (centres unmarked) [Compound 40, 6-Amino-2-(4-chloro-2-fluoro-3-methoxyphenyl)-5-(1-methoxyethyl)pyrimidine-4-carboxylic acid] | 165 to 167 | 35 | 100 | 85 | 90 | 100 | –
C/C=C/c1c(N)nc(-c2ccc(Cl)c(OC)c2F)nc1C(=O)OC [Compound 22, 6-Amino-2-(4-chloro-2-fluoro-3-methoxyphenyl)-5-((E)-propenyl)pyrimidine-4-carboxylic acid methyl ester] | – | – | – | – | – | – | plant injury at 70 g/ha (rice (Oryza sativa); 70 g ai/ha): 0%; pest or weed control at 70 g/ha ([1]; 70 g ai/ha): 100%; pest or weed control at 70 g/ha ([2]; 70 g ai/ha): 85%; pest or weed control at 70 g/ha ([3]; 70 g ai/ha): 95%; pest or weed control at 70 g/ha ([4]; 70 g ai/ha): 95%
C=Cc1c(N)nc(-c2ccc(Cl)c(OC(F)F)c2F)nc1C(=O)O [Compound 50, 6-Amino-2-(4-chloro-3-difluoromethoxy-2-fluorophenyl)-5-vinylpyrimidine-4-carboxylic acid] | – | 45 | 100 | 95 | 100 | 100 | –
C=Cc1c(N)nc(-c2ccc(Cl)c(OC)c2F)nc1C(=O)O [Compound 63, triethylamine salt of 6-amino-2-(4-chloro-2-fluoro-3-methoxyphenyl)-5-vinylpyrimidine-4-carboxylic acid] | – | – | – | – | – | – | Post-emergent Weed Control ORYSA (rice (Oryza sativa); 70 g ai/ha): 75%; Post-emergent Weed Control EPHHL ([1]; 70 g ai/ha): 100%; Post-emergent Weed Control ABUTH ([2]; 70 g ai/ha): 95%; Post-emergent Weed Control ECHCG ([3]; 70 g ai/ha): 90%; Post-emergent Weed Control CHEAL ([4]; 70 g ai/ha): 100%
COC(=O)c1nc(-c2ccc(Cl)c(OC)c2F)cc(N)c1C(F)F [Compound 36, 4-Amino-6-(4-chloro-2-fluoro-3-methoxyphenyl)-3-difluoromethylpyridine-2-carboxylic acid methyl ester] | – | 0 | 95 | 100 | 95 | 95 | –

Continued, in another order:

melting point [°C] | Structure (SMILES) | plant injury at 280 g/ha (rice (Oryza sativa)) [%] | pest or weed control at 280 g/ha [1] [%] | pest or weed control at 280 g/ha [2] [%] | pest or weed control at 280 g/ha [3] [%] | pest or weed control at 280 g/ha [4] [%] | other results
161 to 164 | C=Cc1c(N)nc(-c2cc(OC)c(Cl)cc2F)nc1C(=O)OC [Compound 8, 6-Amino-2-(4-chloro-2-fluoro-5-methoxyphenyl)-5-vinylpyrimidine-4-carboxylic acid methyl ester] | 0 | 50 | 100 | 100 | 100 | –
150 to 153 | C=Cc1c(N)nc(-c2ccc(Cl)c(C(C)F)c2F)nc1C(=O)O (centres unmarked) [Compound 47, 6-Amino-2-(4-chloro-2-fluoro-3-(1-fluoroethyl)phenyl)-5-vinylpyrimidine-4-carboxylic acid] | – | – | – | – | – | plant injury at 70 g/ha (rice (Oryza sativa); 70 g ai/ha): 50%; pest or weed control at 70 g/ha ([1]; 70 g ai/ha): 100%; pest or weed control at 70 g/ha ([2]; 70 g ai/ha): 90%; pest or weed control at 70 g/ha ([3]; 70 g ai/ha): 100%; pest or weed control at 70 g/ha ([4]; 70 g ai/ha): 100%
209 to 211 | C=Cc1c(N)cc(-c2ccc(Cl)cc2F)nc1C(=O)O [Compound 60, 4-Amino-6-(4-chloro-2-fluorophenyl)-3-vinylpyridine-2-carboxylic acid] | – | – | – | – | – | plant injury at 140 g/ha (rice (Oryza sativa)): 15%; pest or weed control at 140 g/ha [1]: 80%; pest or weed control at 140 g/ha [2]: 70%; pest or weed control at 140 g/ha [3]: 35%; pest or weed control at 140 g/ha [4]: 100%
167 to 168 | C=Cc1c(N)nc(-c2ccc(Cl)c(OC)c2F)nc1C(=O)O [Compound 41, 6-Amino-2-(4-chloro-2-fluoro-3-methoxyphenyl)-5-vinylpyrimidine-4-carboxylic acid] | – | – | – | – | – | plant injury at 70 g/ha (rice (Oryza sativa); 70 g ai/ha): 65%; pest or weed control at 70 g/ha ([1]; 70 g ai/ha): 100%; pest or weed control at 70 g/ha ([2]; 70 g ai/ha): 100%; pest or weed control at 70 g/ha ([3]; 70 g ai/ha): 100%; pest or weed control at 70 g/ha ([4]; 70 g ai/ha): 100%
81 to 83 | C=Cc1c(N)nc(-c2cc(F)c(Cl)cc2F)nc1C(=O)O [Compound 46, 6-Amino-2-(4-chloro-2,5-difluorophenyl)-5-vinylpyrimidine-4-carboxylic acid] | – | – | – | – | – | plant injury at 140 g/ha (rice (Oryza sativa)): 40%; pest or weed control at 140 g/ha [1]: 95%; pest or weed control at 140 g/ha [2]: 90%; pest or weed control at 140 g/ha [3]: 90%; pest or weed control at 140 g/ha [4]: 100%
